Patent US20230398130A1, “METHODS AND COMPOSITIONS FOR DIFFERENTIATING STEM CELLS” (Massachusetts Institute of Technology, priority 2020, published 2023)
Structures can show the parent of a compound that is named as a salt.

Experiments:
[1] = test system: ISC-enriched organoids; test: Primary screen, 384-well 2.5-D organoid differentiation (ENR+CD, 6 days): carbachol-induced lysozyme secretion (LYZ.S); format: cell-based, murine; settings: for Dose.FC.LYZ.S: FC vs plate median; for Z.LYZ.S: standard z score; for SSMD.LYZ.S: strictly standardized mean difference
Excerpt: (§1) High-throughput screening.

[2] = test system: ISC-enriched organoids; test: Primary screen, 384-well 2.5-D organoid differentiation (ENR+CD, 6 days, Target Selective Inhibitor Library, vs whole-plate median): ATP (CellTiter-Glo 3D, CTG); settings: for Dose.FC.CTG: FC vs plate median; for SSMD.CTG: strictly standardized mean difference
[3] = test system: ISC-enriched organoids; test: Primary screen, 384-well 2.5-D organoid differentiation (ENR+CD, 6 days): basal lysozyme secretion (LYZ.NS); format: cell-based, murine; settings: for Dose.FC.LYZ.NS: FC vs plate median; for SSMD.LYZ.NS: strictly standardized mean difference
Excerpt: as §1

[4] = Dose 0.08 uM, standard z score of FC
[5] = Dose 0.40 uM, standard z score of FC
[6] = Dose 2.00 uM, standard z score of FC
[7] = Dose 10.00 uM, standard z score of FC
[8] = primary screen, 1st of the 4 dose lines of the treatment (dose not given)
[9] = primary screen, 2nd of the 4 dose lines of the treatment (dose not given)
[10] = primary screen, 3rd of the 4 dose lines of the treatment (dose not given)
[11] = primary screen, 4th of the 4 dose lines of the treatment (dose not given)
[12] = Dose 0.08 uM, primary screen, standard z score
[13] = Dose 0.40 uM, primary screen, standard z score
[14] = Dose 2.00 uM, primary screen, standard z score
[15] = Dose 10.00 uM, primary screen, standard z score

SMILES: COc1cccc2c1C(=O)c1c(O)c3c(c(O)c1C2=O)C[C@@](O)(C(C)=O)C[C@@H]3O[C@H]1C[C@H](N)[C@H](O)[C@H](C)O1 [Daunorubicin HCl]
- Dose.FC.LYZ.S ([1]; Dose 0.08 uM, ENR+CD, 6 days): −0.096 log 2 fold change
- Dose.FC.LYZ.S ([1]; Dose 0.40 uM, ENR+CD, 6 days): −0.329 log 2 fold change
- Dose.FC.LYZ.S ([1]; Dose 2.00 uM, ENR+CD, 6 days): −0.343 log 2 fold change
- Dose.FC.LYZ.S ([1]; Dose 10.00 uM, ENR+CD, 6 days): −0.374 log 2 fold change
- Dose.FC.CTG ([2]; Dose 0.08 uM, ENR+CD, 6 days): −0.467 log 2 fold change
- Z.CTG [2, 4]: −1.115
- Dose.FC.CTG ([2]; Dose 0.40 uM, ENR+CD, 6 days): −0.601 log 2 fold change
- Z.CTG [2, 5]: −1.436
- Dose.FC.CTG ([2]; Dose 2.00 uM, ENR+CD, 6 days): −0.817 log 2 fold change
- Z.CTG [2, 6]: −1.950
- Dose.FC.CTG ([2]; Dose 10.00 uM, ENR+CD, 6 days): −1.100 log 2 fold change
- Z.CTG [2, 7]: −2.628
- Dose.FC.LYZ.NS ([3]; Dose 0.08 uM, ENR+CD, 6 days): −0.136 log 2 fold change
- Z.LYZ.NS [3, 4]: −1.188
- Dose.FC.LYZ.NS ([3]; Dose 0.40 uM, ENR+CD, 6 days): −0.241 log 2 fold change
- Z.LYZ.NS [3, 5]: −2.099
- Dose.FC.LYZ.NS ([3]; Dose 2.00 uM, ENR+CD, 6 days): −0.262 log 2 fold change
- Z.LYZ.NS [3, 6]: −2.280
- Dose.FC.LYZ.NS ([3]; Dose 10.00 uM, ENR+CD, 6 days): −0.260 log 2 fold change
- Z.LYZ.NS [3, 7]: −2.262

SMILES: CO[C@H]1C[C@@H]2CC[C@@H](C)[C@@](O)(O2)C(=O)C(=O)N2CCCC[C@H]2C(=O)O[C@H]([C@H](C)C[C@@H]2CC[C@@H](OCCO)[C@H](OC)C2)CC(=O)[C@H](C)/C=C(\C)[C@@H](O)[C@@H](OC)C(=O)[C@H](C)C[C@H](C)/C=C/C=C/C=C/1C [Everolimus (RAD001)]
- Dose.FC.LYZ.S ([1]; Dose 0.08 uM, ENR+CD, 6 days): −0.012 log 2 fold change
- Dose.FC.LYZ.S ([1]; Dose 0.40 uM, ENR+CD, 6 days): −0.007 log 2 fold change
- Dose.FC.LYZ.S ([1]; Dose 2.00 uM, ENR+CD, 6 days): −0.039 log 2 fold change
- Dose.FC.LYZ.S ([1]; Dose 10.00 uM, ENR+CD, 6 days): −0.096 log 2 fold change
- Dose.FC.CTG ([2]; Dose 0.08 uM, ENR+CD, 6 days): 0.392 log 2 fold change
- Z.CTG [2, 4]: 0.936
- Dose.FC.CTG ([2]; Dose 0.40 uM, ENR+CD, 6 days): 0.127 log 2 fold change
- Z.CTG [2, 5]: 0.304
- Dose.FC.CTG ([2]; Dose 2.00 uM, ENR+CD, 6 days): 0.132 log 2 fold change
- Z.CTG [2, 6]: 0.314
- Dose.FC.CTG ([2]; Dose 10.00 uM, ENR+CD, 6 days): −0.111 log 2 fold change
- Z.CTG [2, 7]: −0.266
- Dose.FC.LYZ.NS ([3]; Dose 0.08 uM, ENR+CD, 6 days): 0.068 log 2 fold change
- Z.LYZ.NS [3, 4]: 0.590
- Dose.FC.LYZ.NS ([3]; Dose 0.40 uM, ENR+CD, 6 days): 0.110 log 2 fold change
- Z.LYZ.NS [3, 5]: 0.956
- Dose.FC.LYZ.NS ([3]; Dose 2.00 uM, ENR+CD, 6 days): −0.003 log 2 fold change
- Z.LYZ.NS [3, 6]: −0.030
- Dose.FC.LYZ.NS ([3]; Dose 10.00 uM, ENR+CD, 6 days): −0.024 log 2 fold change
- Z.LYZ.NS [3, 7]: −0.210

SMILES: COC(=O)CCSCc1ccc(-c2onc(C)c2NC(=O)OC(C)c2ccccc2Cl)cc1 (stereo not drawn) [Ki16198]
- Dose.FC.LYZ.S ([1]; Dose 0.08 uM, primary screen): 0.027 log 2 fold change
- Dose.FC.LYZ.S ([1]; Dose 0.40 uM, primary screen): 0.031 log 2 fold change
- Dose.FC.LYZ.S ([1]; Dose 2.00 uM, primary screen): −0.015 log 2 fold change
- Dose.FC.LYZ.S ([1]; Dose 10.00 uM, primary screen): −0.037 log 2 fold change
- Z.LYZ.S [1, 8]: 0.176
- Z.LYZ.S [1, 9]: 0.204
- Z.LYZ.S [1, 10]: −0.095
- Z.LYZ.S [1, 11]: −0.239
- SSMD.LYZ.S [1, 8]: 0.136
- SSMD.LYZ.S [1, 9]: 0.231
- SSMD.LYZ.S [1, 10]: −0.105
- SSMD.LYZ.S [1, 11]: −0.262
- Dose.FC.CTG ([2]; Dose 0.08 uM, primary screen): −0.011 log 2 fold change
- Z.CTG [2, 12]: −0.026
- Dose.FC.CTG ([2]; Dose 0.40 uM, primary screen): −0.108 log 2 fold change
- Z.CTG [2, 13]: −0.258
- Dose.FC.CTG ([2]; Dose 2.00 uM, primary screen): −0.033 log 2 fold change
- Z.CTG [2, 14]: −0.078
- Dose.FC.CTG ([2]; Dose 10.00 uM, primary screen): 0.022 log 2 fold change
- Z.CTG [2, 15]: 0.052
- SSMD.CTG [2, 8]: −0.028
- SSMD.CTG [2, 9]: −0.359
- SSMD.CTG [2, 10]: −0.118
- SSMD.CTG [2, 11]: 0.073
- Dose.FC.LYZ.NS ([3]; Dose 0.08 uM, primary screen): 0.005 log 2 fold change
- Z.LYZ.NS [3, 12]: 0.044
- Dose.FC.LYZ.NS ([3]; Dose 0.40 uM, primary screen): −0.009 log 2 fold change
- Z.LYZ.NS [3, 13]: −0.076
- Dose.FC.LYZ.NS ([3]; Dose 2.00 uM, primary screen): 0.060 log 2 fold change
- Z.LYZ.NS [3, 14]: 0.519
- Dose.FC.LYZ.NS ([3]; Dose 10.00 uM, primary screen): −0.103 log 2 fold change
- Z.LYZ.NS [3, 15]: −0.899
- SSMD.LYZ.NS [3, 8]: 0.052
- SSMD.LYZ.NS [3, 9]: −0.083
- SSMD.LYZ.NS [3, 10]: 0.211
- SSMD.LYZ.NS [3, 11]: −0.914

SMILES: CC(C)c1noc(N2CCC(COc3ccc(-c4ccc(S(C)(=O)=O)cc4)nc3)CC2)n1 [GSK1292263]
- Dose.FC.LYZ.S ([1]; Dose 0.08 uM, primary screen): 0.111 log 2 fold change
- Dose.FC.LYZ.S ([1]; Dose 0.40 uM, primary screen): 0.101 log 2 fold change
- Dose.FC.LYZ.S ([1]; Dose 2.00 uM, primary screen): 0.060 log 2 fold change
- Dose.FC.LYZ.S ([1]; Dose 10.00 uM, primary screen): 0.027 log 2 fold change
- Dose.FC.CTG ([2]; Dose 0.08 uM, primary screen): 0.161 log 2 fold change
- Z.CTG [2, 12]: 0.384
- Dose.FC.CTG ([2]; Dose 0.40 uM, primary screen): 0.192 log 2 fold change
- Z.CTG [2, 13]: 0.458
- Dose.FC.CTG ([2]; Dose 2.00 uM, primary screen): 0.224 log 2 fold change
- Z.CTG [2, 14]: 0.535
- Dose.FC.CTG ([2]; Dose 10.00 uM, primary screen): 0.196 log 2 fold change
- Z.CTG [2, 15]: 0.468
- Dose.FC.LYZ.NS ([3]; Dose 0.08 uM, primary screen): 0.078 log 2 fold change
- Z.LYZ.NS [3, 12]: 0.681
- Dose.FC.LYZ.NS ([3]; Dose 0.40 uM, primary screen): 0.050 log 2 fold change
- Z.LYZ.NS [3, 13]: 0.434
- Dose.FC.LYZ.NS ([3]; Dose 2.00 uM, primary screen): 0.028 log 2 fold change
- Z.LYZ.NS [3, 14]: 0.240
- Dose.FC.LYZ.NS ([3]; Dose 10.00 uM, primary screen): 0.020 log 2 fold change
- Z.LYZ.NS [3, 15]: 0.173
